Two molecules from patent US20240092772A1, “CRYSTALLINE FORM OF A PIPERAZINYL-THIAZOLE DERIVATIVE” (Idorsia Pharmaceuticals Ltd, priority 2021, published 2024) can be followed below.

SMILES strings stand for the structures.

Series [1] in a line: Solid-state stability of crystalline form 3 on isolation/drying (XRPD). The series is classed as physicochemical. The note with it: isolation by filter centrifugation or drying under reduced pressure; transforms to crystalline form 1. As for the experimental part:
In another experiment 0.04 mL of MeCN is added to 20 mg of COMPOUND (e.g. as obtained from Example 1) in a standard glass HPLC vial, and the suspension in the closed vial is submitted to a temperature variation cycle while being stirred with a magnetic stirring bar. Temperature cycling (repetition of heating 20° C. to 40° C. in 1 hour and cooling 40° C. to 20° C. in 4 hours) and stirring for 25 hours is done in a Polar Bear device (Cambridge reactor design, UK) The obtained solid, when analyzed without drying, is COMPOUND in crystalline form 3.
Form 3 is observed by XRPD when measured still in presence of sufficient MeCN. Isolation by filter centrifugation or isolation and drying under reduced pressure leads to the transformation of crystalline form 3 to crystalline form 1, pointing to the metastable nature of form 3 in absence of sufficient MeCN.

Series [2] is described as follows: Gravimetric vapor sorption (GVS), hygroscopicity determination. It counts as physicochemical. The note with it: 25° C.; variation in mass between 40% and 80% RH in first sorption scan; classification in analogy to Ph. Eur. 10.0, section 5.11. As for the experimental part: Gravimetric Vapor Sorption (GVS) Moisture sorption isotherm was collected on a dynamic vapor sorption analyzer IGASORP HAS-036-080 from Hiden Isochema operated with Isochema HIsorp 2019 software version 4.02.0070. Typically, about 30 mg of a sample is placed in the sample holder and is submitted to a stepwise equilibration at defined relative humidity (RH) setpoints at 25° C. The sample mass is recorded at these setpoints and are used to build the moisture sorption isotherm. The relative humidity setpoints used were 40% to 0% RH followed by 0% to 95% RH in 5% RH intervals. Data shown consist of the moisture sorption isotherm in the range 5% to 90% of the sample submitted to the increasing relative humidity. The variation in mass between 40% relative humidity and 80% relative humidity in the first sorption scan is evaluated for the hygroscopicity determination. The classification is done in analogy to the European Pharmacopeia (Ph. Eur.) 10.0, section 5.11.

`Cc1ncn(CC(=O)N2CCN(c3sc(C(F)(F)F)nc3-c3cnc(C(F)(F)F)nc3)C[C@H]2CCO)n1` [crystalline form 3, 1-{(R)-2-(2-Hydroxy-ethyl)-4-[2-trifluoromethyl-4-(2-trifluoromethyl-pyrimidin-5-yl)-thiazol-5-yl]-piperazin-1-yl}-2-(3-methyl-[1,2,4]triazol-1-yl)-ethanone]: the “Stability of the crystalline form in absence of sufficient MeCN” value in series [1] is listed as “metastable”. As for `Cc1ncn(CC(=O)N2CCN(c3sc(C(F)(F)F)nc3-c3cnc(C(F)(F)F)nc3)C[C@H]2CCO)n1` [COMPOUND in crystalline form 1, 1-{(R)-2-(2-Hydroxy-ethyl)-4-[2-trifluoromethyl-4-(2-trifluoromethyl-pyrimidin-5-yl)-thiazol-5-yl]-piperazin-1-yl}-2-(3-methyl-[1,2,4]triazol-1-yl)-ethanone], the “GVS (hygroscopicity)” value in series [2] is “Not hygroscopic”.
